Columns and labels:
human plasma kallikrein = human plasma kallikrein (Homo sapiens (Human), UniProt P03952); test: In vitro enzyme inhibition of human plasma kallikrein (Pro-Phe-Arg-AMC cleavage); format: biochemical; conditions: Pro-Phe-Arg-AMC substrate, 37° C., read-out: hPK IC50
Procedure: The ability of the compounds disclosed herein to inhibit human plasma kallikrein activity was quantified according to the procedures below.
A 10 mM solution of the test compound was made in DMSO. […] A control tube containing only DMSO is included. 16 μL of each compound test solution was combined with 384 μL of assay buffer (50 mM Tris-HCl pH 7.5, 150 mM NaCl, 0.01% Triton X-100) to yield a “4× test compound buffer stock”.
These solutions are hereby referred to as 4×hPK and 2×PFR-AMC, respectively.
50 μL was removed from this mixture and placed into duplicate wells on a Microfluor 1Black U-bottom microtiter plate (Thermo Scientific). This plate was incubated for 5 minutes at 37° C. To each well, 50 µL of pre-warmed 2×PFR-AMC was added to start the enzymatic reaction. Cleavage of PFR-AMC was monitored in a Biotek Synergy H4 reader set at 37° C. Readings are taken every 43 seconds for 1 hour. […] The IC50 is calculated using the Gen5 (Biotek Instruments).
The ability of the compounds in Table 3 to inhibit human plasma kallikrein activity was determined.

[1] = Contact Assay (percentage inhibition from fluorescence intensity); format: biochemical
Procedure: The percentage inhibition was calculated using the following equation:
[formula] where, Mean(BG) is the average value of the fluorescence intensity of the background wells and Mean(PC) is the average value of the fluorescence intensity of the positive control wells.
Table 4 provides the EC50 values of various compounds disclosed herein.

human plasma kallikrein, sequence (P03952 391-638 limits assumed): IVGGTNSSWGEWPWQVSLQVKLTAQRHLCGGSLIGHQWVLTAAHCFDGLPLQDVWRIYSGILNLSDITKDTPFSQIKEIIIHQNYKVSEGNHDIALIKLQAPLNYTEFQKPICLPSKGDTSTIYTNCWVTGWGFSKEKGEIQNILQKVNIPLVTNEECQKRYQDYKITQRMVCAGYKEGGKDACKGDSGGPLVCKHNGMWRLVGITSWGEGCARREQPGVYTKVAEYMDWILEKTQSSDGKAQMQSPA
human plasma kallikrein, sequence (P03952 20-390 partner limits assumed): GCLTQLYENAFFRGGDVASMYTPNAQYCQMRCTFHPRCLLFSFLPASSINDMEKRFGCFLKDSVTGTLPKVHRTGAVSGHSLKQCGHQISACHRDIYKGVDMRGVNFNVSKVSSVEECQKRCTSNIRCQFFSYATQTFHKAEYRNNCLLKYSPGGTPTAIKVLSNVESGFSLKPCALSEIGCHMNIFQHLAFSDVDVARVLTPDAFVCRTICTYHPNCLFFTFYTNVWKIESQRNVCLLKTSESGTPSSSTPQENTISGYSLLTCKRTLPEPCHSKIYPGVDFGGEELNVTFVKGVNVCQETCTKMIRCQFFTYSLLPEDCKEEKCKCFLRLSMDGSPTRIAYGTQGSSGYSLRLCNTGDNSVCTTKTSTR

| Compound | EC50 [1] [nM] | IC50 (human plasma kallikrein) [nM] |
| --- | --- | --- |
| N-(3-chloro-6-fluoro-1H-indol-5-ylmethyl)-2-(2-cyano-quinolin-6-ylmethyl)-isonicotinamide [Example 130] | – | < 100 |
| N#Cc1cc(Cc2cc(C(=O)NCc3ccc4c(N)nccc4c3)ccn2)cc2cc(Cl)cnc12 [Example 57, N-(1-amino-isoquinolin-6-ylmethyl)-2-(3-chloro-8-cyano-quinolin-6-ylmethyl)-isonicotinamide] | 100 to 1000 | – |
| Cc1cc(N)nc(C)c1CNC(=O)c1ccnc(Cc2cc(F)c3ncc(Cl)cc3c2)c1 [Example 89, N-(6-amino-2,4-dimethyl-pyridin-3-ylmethyl)-2-(3-chloro-8-fluoro-quinolin-6-ylmethyl)-isonicotinamide] | ≤ 100 | – |
| Cc1cc(C(=O)NCc2c(C)cc(N)nc2C)cc(Cc2ccc3ncc(Cl)cc3c2)n1 [Example 104, N-((6-amino-2,4-dimethylpyridin-3-yl)methyl)-2-((3-chloroquinolin-6-yl)methyl)-6-methylisonicotinamide] | ≤ 100 | – |

Second part, led by results:

| EC50 [1] [nM] | Compound | IC50 (human plasma kallikrein) [nM] |
| --- | --- | --- |
| 100 to 1000 | Cc1cc(N)nc(C)c1CNC(=O)c1cc(Cc2ccc3ncc(Cl)cc3c2)nc(C(=O)O)c1 [Example 209, 4-((6-amino-2,4-dimethylpyridin-3-yl)methylcarbamoyl)-6-((3-chloroquinolin-6-yl)methyl)picolinic Acid] | < 100 |
| ≤ 100 | Cc1cnc2c(C(N)=O)cc(Cc3cc(C(=O)NCc4ccc5c(N)nccc5c4)ccn3)cc2c1 [Example 79, 6-((4-(((1-aminoisoquinolin-6-yl)methyl)carbamoyl)pyridin-2-yl)methyl)-3-methylquinoline-8-carboxamide] | – |
| ≤ 100 | Cc1cc(N)nc(C)c1CNC(=O)c1ccnc(Cc2cc(C(=O)O)c3ncc(Cl)cc3c2)c1 [Example 93, 6-((4-(((6-amino-2,4-dimethylpyridin-3-yl)methyl)carbamoyl)pyridin-2-yl)methyl)-3-chloroquinoline-8-carboxylic acid] | – |
| 100 to 1000 | CC(C)(O)c1cc(Cc2cc(C(=O)NCc3ccc4[nH]cc(Cl)c4c3F)ccn2)cc2cc(Cl)cnc12 [Example 222, N-((3-chloro-4-fluoro-1H-indol-5-yl)methyl)-2-((3-chloro-8-(2-hydroxypropan-2-yl)quinolin-6-yl)methyl)isonicotinamide] | – |
| ≤ 100 | Cc1cnc2c(S(C)(=O)=O)cc(Cc3cc(C(=O)NCc4cc5c(Cl)c[nH]c5cc4F)ccn3)cc2c1 [Example 17, N-((3-chloro-6-fluoro-1H-indol-5-yl)methyl)-2-((3-methyl-8-(methylsulfonyl)quinolin-6-yl)methyl)isonicotinamide] | – |
| 100 to 1000 | Cc1cc(N)nc(C)c1CNC(=O)c1ccnc(Cc2cc(-c3nnn[nH]3)c3ncc(Cl)cc3c2)c1 [Example 272, N-((6-amino-2,4-dimethylpyridin-3-yl)methyl)-2-((3-chloro-8-(1H-tetrazol-5-yl)quinolin-6-yl)methyl)isonicotinamide] | – |

Reference: patent US10308637B2 (LifeSci Pharmaceuticals, Inc., priority 2015, dated 2019)
